Source: ChEMBL document CHEMBL1153474, “Novel tricyclic antagonists of the prostaglandin D2 receptor DP2 with efficacy in a murine model of allergic rhinitis” (Bioorg Med Chem Lett, 2009)
The source made the active and inactive calls. The rule behind the calls is not given here.

Experiments:
[1] = target: T1, Prostaglandin D2 receptor 2 (Homo sapiens, UniProt Q9Y5Y4); test: Displacement of [3H]PGD2 from human prostaglandin D2 receptor
T1 sequence (Q9Y5Y4 whole entry): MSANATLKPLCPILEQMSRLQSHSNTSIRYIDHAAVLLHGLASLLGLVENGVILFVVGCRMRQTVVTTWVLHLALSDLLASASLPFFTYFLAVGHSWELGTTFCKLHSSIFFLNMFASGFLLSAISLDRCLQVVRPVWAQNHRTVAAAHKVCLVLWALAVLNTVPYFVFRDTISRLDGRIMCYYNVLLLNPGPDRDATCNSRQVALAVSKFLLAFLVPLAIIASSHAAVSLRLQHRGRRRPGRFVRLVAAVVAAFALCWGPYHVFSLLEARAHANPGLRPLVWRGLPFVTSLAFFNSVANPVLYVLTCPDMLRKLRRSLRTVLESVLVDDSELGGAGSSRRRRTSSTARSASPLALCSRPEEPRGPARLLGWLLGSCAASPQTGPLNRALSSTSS

Cytochrome P450 3A4 [2] = target: T2, Cytochrome P450 3A4 (Homo sapiens, UniProt P08684); test: Induction of CYP3A4 activity in cryopreserved human hepatocytes at 10 uM using midazolam as substrate after 2 days relative to rifampicin; details: 48 h
Cytochrome P450 3A4 [3] = target: T2, Cytochrome P450 3A4; test: Inhibition of human CYP3A4; format: ADME
Prostacyclin receptor = Prostacyclin receptor (Homo sapiens, UniProt P43119); test: Displacement of [3H]iloprost from human prostacyclin receptor expressed in human 293 cell membrane; format: cell membranes
Cytochrome P450 2C9 = Cytochrome P450 2C9 (Homo sapiens, UniProt P11712); test: Inhibition of human CYP2C9; format: ADME
Thromboxane A2 receptor = target: T3, Thromboxane A2 receptor (Homo sapiens, UniProt P21731); test: Displacement of [3H]SQ-29548 from thromboxane receptor in human platelet membrane; format: cell membranes
T3 sequence (P21731 whole entry): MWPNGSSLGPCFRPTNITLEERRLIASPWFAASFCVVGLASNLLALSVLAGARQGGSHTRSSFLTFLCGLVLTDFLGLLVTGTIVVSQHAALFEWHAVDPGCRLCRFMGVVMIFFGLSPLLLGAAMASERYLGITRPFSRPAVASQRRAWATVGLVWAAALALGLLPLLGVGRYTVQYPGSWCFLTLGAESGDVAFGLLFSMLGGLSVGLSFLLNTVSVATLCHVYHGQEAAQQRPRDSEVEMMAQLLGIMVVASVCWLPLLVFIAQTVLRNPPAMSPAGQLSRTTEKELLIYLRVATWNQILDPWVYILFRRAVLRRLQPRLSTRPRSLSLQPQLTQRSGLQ

Cytochrome P450 2D6 = Cytochrome P450 2D6 (Homo sapiens, UniProt P10635); test: Inhibition of human CYP2D6; format: ADME
[4] = target: T1, Prostaglandin D2 receptor 2; test: Displacement of [3H]PGD2 from human prostaglandin D2 receptor in presence of human serum albumin
[5] = target: T4, Prostaglandin D2 receptor (Homo sapiens, UniProt Q13258); test: Displacement of [3H]PGD2 from […] in human platelet membrane; format: cell membranes
T4 sequence (Q13258 whole entry): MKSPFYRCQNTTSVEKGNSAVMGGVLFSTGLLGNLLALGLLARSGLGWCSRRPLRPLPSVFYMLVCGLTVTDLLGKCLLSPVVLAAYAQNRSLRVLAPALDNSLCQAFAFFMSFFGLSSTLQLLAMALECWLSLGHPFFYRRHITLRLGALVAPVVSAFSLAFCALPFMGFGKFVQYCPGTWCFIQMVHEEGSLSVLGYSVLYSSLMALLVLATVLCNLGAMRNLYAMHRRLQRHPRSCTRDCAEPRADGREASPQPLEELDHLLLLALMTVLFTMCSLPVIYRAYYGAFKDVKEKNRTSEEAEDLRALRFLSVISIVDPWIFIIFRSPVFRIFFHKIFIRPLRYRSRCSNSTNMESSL

Blood = test: Inhibition of eosinophil […] in human whole blood assessed as change in morphology after 4 mins using flow cytometry by leukocyte shape change assay; format: functional, tissue-based
Mus musculus [6] = test: Reduction of ovalbumin-induced increase in nasal rubs in BALB/c mouse at 10 mg/kg, po once daily for 3 days administered 20 days after ip challenge with ovalbumin followed by intranasal ovalbumin challenge 1 hr post drug dose measured after 8 mins; format: functional, organism-based; parameters: dose 10 mg/kg
[7] = Cmax in BALB/c mouse at 10 mg/kg, po administered once daily for 3 days measured after 1 hr; format: ADME, organism-based; parameters: dose 10 mg/kg, route oral; details: in vivo
Mus musculus [8] = test: Reduction of ovalbumin-induced increase in sneezes in BALB/c mouse at 10 mg/kg, po once daily for 3 days administered 20 days after ip challenge with ovalbumin followed by intranasal ovalbumin challenge 1 hr post drug dose measured after 8 mins; format: functional, organism-based; parameters: dose 10 mg/kg
[9] = Cmin in BALB/c mouse at 10 mg/kg, po administered once daily for 3 days measured after 8 hrs; format: ADME, organism-based; parameters: dose 10 mg/kg, route oral; details: in vivo, read-out: Cmin

T2 sequence (P08684 whole entry): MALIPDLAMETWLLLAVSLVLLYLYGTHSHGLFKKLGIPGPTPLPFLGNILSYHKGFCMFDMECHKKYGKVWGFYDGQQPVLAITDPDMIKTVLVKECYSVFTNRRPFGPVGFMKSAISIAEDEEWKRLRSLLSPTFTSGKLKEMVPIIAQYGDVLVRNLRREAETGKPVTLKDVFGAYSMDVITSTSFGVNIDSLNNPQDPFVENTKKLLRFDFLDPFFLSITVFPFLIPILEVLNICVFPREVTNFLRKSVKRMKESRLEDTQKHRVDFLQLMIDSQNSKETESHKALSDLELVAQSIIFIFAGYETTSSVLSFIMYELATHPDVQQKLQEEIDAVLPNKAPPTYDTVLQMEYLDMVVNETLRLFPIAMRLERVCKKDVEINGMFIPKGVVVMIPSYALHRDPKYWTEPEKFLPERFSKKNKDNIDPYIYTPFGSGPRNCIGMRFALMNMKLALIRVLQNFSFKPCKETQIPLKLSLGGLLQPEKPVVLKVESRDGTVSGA
Chain of Prostacyclin receptor (P43119 whole entry): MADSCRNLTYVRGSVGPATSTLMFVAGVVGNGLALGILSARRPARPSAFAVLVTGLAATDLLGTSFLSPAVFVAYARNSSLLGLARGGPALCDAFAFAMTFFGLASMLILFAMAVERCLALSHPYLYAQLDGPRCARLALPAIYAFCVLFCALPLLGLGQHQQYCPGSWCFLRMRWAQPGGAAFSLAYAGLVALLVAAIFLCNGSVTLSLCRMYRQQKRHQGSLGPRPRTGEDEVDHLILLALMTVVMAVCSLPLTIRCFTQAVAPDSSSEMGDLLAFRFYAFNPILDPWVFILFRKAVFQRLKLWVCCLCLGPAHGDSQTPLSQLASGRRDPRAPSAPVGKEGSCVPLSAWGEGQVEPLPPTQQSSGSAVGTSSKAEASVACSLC
Chain of Cytochrome P450 2C9 (P11712 whole entry): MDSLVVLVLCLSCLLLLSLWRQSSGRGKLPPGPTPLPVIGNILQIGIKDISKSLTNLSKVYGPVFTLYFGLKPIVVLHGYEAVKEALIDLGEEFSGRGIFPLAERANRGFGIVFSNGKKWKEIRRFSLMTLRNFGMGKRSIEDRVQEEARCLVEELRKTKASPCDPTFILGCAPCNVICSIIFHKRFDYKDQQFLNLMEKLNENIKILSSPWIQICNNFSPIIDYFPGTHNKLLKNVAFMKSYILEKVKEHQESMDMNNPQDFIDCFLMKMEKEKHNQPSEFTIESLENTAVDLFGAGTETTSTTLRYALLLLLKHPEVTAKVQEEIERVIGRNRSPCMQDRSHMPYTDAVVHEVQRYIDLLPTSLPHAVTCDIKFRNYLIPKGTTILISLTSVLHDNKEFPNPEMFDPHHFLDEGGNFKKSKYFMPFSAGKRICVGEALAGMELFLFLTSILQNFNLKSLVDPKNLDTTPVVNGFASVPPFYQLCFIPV
Chain of Cytochrome P450 2D6 (P10635 whole entry): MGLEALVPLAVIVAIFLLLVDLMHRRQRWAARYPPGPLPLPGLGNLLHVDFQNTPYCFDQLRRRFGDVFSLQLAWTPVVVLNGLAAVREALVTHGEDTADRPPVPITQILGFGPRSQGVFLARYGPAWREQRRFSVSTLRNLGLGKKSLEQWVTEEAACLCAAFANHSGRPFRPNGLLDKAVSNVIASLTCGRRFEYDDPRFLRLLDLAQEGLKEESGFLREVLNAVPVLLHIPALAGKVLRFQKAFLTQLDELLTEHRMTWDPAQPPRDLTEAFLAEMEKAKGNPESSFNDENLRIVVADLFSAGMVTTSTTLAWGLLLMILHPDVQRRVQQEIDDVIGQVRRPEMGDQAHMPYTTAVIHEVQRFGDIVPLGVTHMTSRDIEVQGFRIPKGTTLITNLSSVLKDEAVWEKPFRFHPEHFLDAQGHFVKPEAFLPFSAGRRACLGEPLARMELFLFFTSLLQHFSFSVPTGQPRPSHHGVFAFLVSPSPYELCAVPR

| SMILES | IC50 [1] | Activity (Cytochrome P450 3A4 [2]) | IC50 (Cytochrome P450 3A4 [3]) | IC50 (Prostacyclin receptor) | IC50 (Cytochrome P450 2C9) | IC50 (Thromboxane A2 receptor) | IC50 (Cytochrome P450 2D6) | IC50 [4] | IC50 [5] | IC50 (Blood) | Cmax [7] | concentration at 8 h [9] | Activity (Mus musculus [6]) | Activity (Mus musculus [8]) |
| --- | --- | --- | --- | --- | --- | --- | --- | --- | --- | --- | --- | --- | --- | --- |
| CN([C@@H]1CCc2c(CC(=O)O)c3ncccc3n2C1)S(=O)(=O)c1ccc(F)cc1 | 24.9 µM | 0.9% | > 30 µM | > 100 µM | > 30 µM | > 100 µM | > 30 µM | 51 µM | 41.7 µM | 41.6 µM |  |  |  |  |
| CN([C@@H]1CCc2c(CC(=O)O)c3ccccn3c2C1)S(=O)(=O)c1ccc(F)cc1 | 0.018 µM | 0.9% | > 30 µM | > 100 µM | 17 µM | > 100 µM | > 30 µM | 0.046 µM | 4.4 µM | 0.006 µM |  |  |  |  |
| CN([C@@H]1CCc2c(c3ccncc3n2CC(=O)O)C1)S(=O)(=O)c1ccc(F)cc1 | 0.86 µM | 0.4% | > 30 µM | > 100 µM | > 30 µM | > 100 µM | > 30 µM | 0.94 µM | > 100 µM | 0.452 µM |  |  |  |  |
| CN([C@@H]1CCc2c(c3ncccc3n2CC(=O)O)C1)S(=O)(=O)c1ccc(F)cc1 | 0.006 µM | 2.8% | > 30 µM | > 100 µM | > 30 µM | > 100 µM | > 30 µM | 0.011 µM | > 100 µM | 0.001 µM | 770 nM | 120 nM | Active | Active |
| CN([C@@H]1CCc2c(c3ccccn3c2CC(=O)O)C1)S(=O)(=O)c1ccc(F)cc1 | 0.094 µM |  | 11 µM | > 100 µM | 10 µM |  | > 30 µM | 0.061 µM | 31 µM | 0.016 µM |  |  |  |  |
| CN([C@@H]1CCc2c(c3cccnc3n2CC(=O)O)C1)S(=O)(=O)c1ccc(F)cc1 | 0.457 µM | 2.8% | > 30 µM | > 100 µM | > 30 µM | > 100 µM | > 30 µM | 1.34 µM | 9 µM | 3.1 µM |  |  |  |  |
| CN([C@@H]1CCc2c(CC(=O)O)c3ccccc3n2C1)S(=O)(=O)c1ccc(F)cc1 [MK-7246] | 0.006 µM | 0.7% | 7 µM | > 100 µM | 5 µM | > 100 µM | > 30 µM | 0.02 µM | 1 µM | 0.007 µM |  |  |  |  |

The next lines start with results.

| IC50 [1] | Activity (Cytochrome P450 3A4 [2]) | IC50 (Cytochrome P450 3A4 [3]) | IC50 (Prostacyclin receptor) | IC50 (Cytochrome P450 2C9) | IC50 (Thromboxane A2 receptor) | IC50 (Cytochrome P450 2D6) | IC50 [4] | IC50 [5] | IC50 (Blood) | Cmax [7] | concentration at 8 h [9] | SMILES | Activity (Mus musculus [6]) | Activity (Mus musculus [8]) |
| --- | --- | --- | --- | --- | --- | --- | --- | --- | --- | --- | --- | --- | --- | --- |
| 0.001 µM | 30.8% | > 30 µM | > 100 µM | 18 µM | > 100 µM | > 30 µM | 0.004 µM | 2.2 µM | 0.001 µM |  |  | CN([C@@H]1CCC2=C(C1)C1C=CC=CC1N2CC(=O)O)S(=O)(=O)c1ccc(F)cc1 (stereo partly specified) |  |  |
| 0.096 µM | 0.9% | > 30 µM | > 100 µM | 15 µM | > 100 µM | > 30 µM | 0.127 µM | 37.8 µM | 0.14 µM |  |  | CN([C@@H]1CCc2c(c3nccnc3n2CC(=O)O)C1)S(=O)(=O)c1ccc(F)cc1 |  |  |
| 0.042 µM | 0.4% |  | > 100 µM | > 30 µM | 62.6 µM | > 30 µM | 0.744 µM | 25.6 µM | 0.744 µM |  |  | CN(C)c1nc(Cc2ccc(NC(=O)c3ccc(C(F)(F)F)cc3)cc2)nc(N(C)C)c1CC(=O)O [BI-671800] |  |  |
| 0.311 µM |  |  | > 100 µM | 15 µM | 0.014 µM | > 30 µM | 0.754 µM | 33.4 µM | 1.21 µM |  |  | O=C(O)CCn1c2c(c3ccccc31)C[C@H](NS(=O)(=O)c1ccc(F)cc1)CC2 [RAMATROBAN] |  |  |
|  | 58.8% |  | 57.9 µM | > 30 µM | > 100 µM | > 30 µM |  | 7.3 µM | 0.261 µM |  |  | Cc1c(Cc2ccc3ccccc3n2)c2cc(F)ccc2n1CC(=O)O [TIMAPIPRANT] |  |  |
